For assay [1], the target named is T1, PYR1 (Arabidopsis thaliana, UniProt O49686).
T1 construct: expressed in transfected cells; host or cells: S. cerevisiae strain Y190
T1 sequence (O49686 1-191): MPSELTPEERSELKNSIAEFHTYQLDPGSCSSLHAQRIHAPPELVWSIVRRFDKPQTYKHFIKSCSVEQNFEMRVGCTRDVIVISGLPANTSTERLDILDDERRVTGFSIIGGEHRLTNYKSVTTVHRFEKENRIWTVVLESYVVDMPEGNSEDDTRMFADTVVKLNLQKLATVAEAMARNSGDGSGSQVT
T1 sequence (Q9CAJ0 23-511 partner): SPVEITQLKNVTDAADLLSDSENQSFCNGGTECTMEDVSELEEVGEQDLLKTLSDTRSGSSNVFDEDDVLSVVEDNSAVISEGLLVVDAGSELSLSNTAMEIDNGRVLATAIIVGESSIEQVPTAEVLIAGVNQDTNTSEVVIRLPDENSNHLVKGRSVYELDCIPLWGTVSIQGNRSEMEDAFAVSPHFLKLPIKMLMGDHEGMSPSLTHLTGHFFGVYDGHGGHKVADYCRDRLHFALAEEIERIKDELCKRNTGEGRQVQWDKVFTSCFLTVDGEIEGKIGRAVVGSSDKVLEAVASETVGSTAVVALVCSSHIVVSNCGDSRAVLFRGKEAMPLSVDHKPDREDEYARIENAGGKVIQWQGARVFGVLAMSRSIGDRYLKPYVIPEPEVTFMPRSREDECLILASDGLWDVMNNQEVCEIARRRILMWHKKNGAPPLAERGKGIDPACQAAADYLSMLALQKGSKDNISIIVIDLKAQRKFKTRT
Nature of the assay: Yeast two-hybrid wild-type PYR1-HAB1 interaction with added ABA. The following applies: wild-type PYR1, 10 μM ABA. The class given is cell-based. On the procedure:
29 of 741 PYR1 mutants constructed, located in 10 different residues, increase the interaction between PYR1 and HAB1 in the absence of ABA, as measured using the yeast two hybrid assay (upper left panel). […] Each graph includes control wild-type PYR1 protein tested in the absence (diamonds) and presence (squares) of 10 μM ABA. Specific mutant proteins (triangles) were tested in the absence of ABA. […] Plotted in each graph is PP2C activity, expressed as % of control, which is the PP2C activity measured in the absence of ABA or receptor protein.
To define sites that can be mutated to improve interactions between PYR/PYL receptors and PP2Cs, we conducted saturation mutagenesis on 39 residues in PYR1 that normally contact ABA (i.e., are within the ligand-binding pocket of PYR1) and/or PP2Cs (i.e., are within the PP2C binding interface). All 741 single-mutant variants possible at these functionally critical locations were constructed and then assayed for PP2C interactions using a yeast two-hybrid based assay. Saturation mutagenesis is a method that involves the construction of all possible amino acid variants at a given site (i.e., the generation of all 19 substitution mutants per site). […]

The target of assay [2] is T2, PYR1 (Arabidopsis thaliana, UniProt O49686).
T2 sequence (O49686 1-191): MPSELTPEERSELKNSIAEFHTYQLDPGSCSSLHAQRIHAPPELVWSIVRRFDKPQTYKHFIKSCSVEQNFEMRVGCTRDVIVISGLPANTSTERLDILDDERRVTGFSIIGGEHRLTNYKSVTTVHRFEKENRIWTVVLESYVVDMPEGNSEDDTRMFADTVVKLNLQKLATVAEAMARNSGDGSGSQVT
Conditions: cited from earlier work.

The target in assay [3] is T3, PYL1 (Arabidopsis thaliana, UniProt Q8VZS8).
T3 sequence (Q8VZS8 1-221): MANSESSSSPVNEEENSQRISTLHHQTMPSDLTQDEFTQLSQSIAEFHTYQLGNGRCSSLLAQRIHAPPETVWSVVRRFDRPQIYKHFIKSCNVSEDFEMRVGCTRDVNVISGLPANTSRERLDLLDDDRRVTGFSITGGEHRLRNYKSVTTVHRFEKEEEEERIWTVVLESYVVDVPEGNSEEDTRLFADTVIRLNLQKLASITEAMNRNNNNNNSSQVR
Conditions: cited from earlier work.

Assay [4] concerns the target T4, PYL2 (Arabidopsis thaliana, UniProt O80992).
T4 sequence (O80992 1-190): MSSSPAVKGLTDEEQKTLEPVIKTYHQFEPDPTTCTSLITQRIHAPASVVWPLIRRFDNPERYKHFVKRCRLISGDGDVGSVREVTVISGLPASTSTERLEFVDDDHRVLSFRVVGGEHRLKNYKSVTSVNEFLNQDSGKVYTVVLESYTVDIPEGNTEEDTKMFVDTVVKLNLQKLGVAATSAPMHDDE
The following applies: cited from earlier work.

Assay [5] deals with T5, PYL5 (Arabidopsis thaliana, UniProt Q9FLB1).
T5 sequence (Q9FLB1 1-203): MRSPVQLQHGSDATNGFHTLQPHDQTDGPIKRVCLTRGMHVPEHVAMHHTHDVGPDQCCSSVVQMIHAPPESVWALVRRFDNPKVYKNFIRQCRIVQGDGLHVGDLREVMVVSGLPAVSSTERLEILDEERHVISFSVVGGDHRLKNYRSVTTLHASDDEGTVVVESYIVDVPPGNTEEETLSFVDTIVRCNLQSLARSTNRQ
Conditions: cited from earlier work.

Assay [6] has as its system ABA-responsive gene transcription. The following applies: in vivo; cited from earlier work.
Assay [7] addresses T6, HAB1 (Arabidopsis thaliana, UniProt Q9CAJ0).
T6 construct: expressed in transfected cells; host or cells: S. cerevisiae strain Y190
T6 sequence (Q9CAJ0 1-511): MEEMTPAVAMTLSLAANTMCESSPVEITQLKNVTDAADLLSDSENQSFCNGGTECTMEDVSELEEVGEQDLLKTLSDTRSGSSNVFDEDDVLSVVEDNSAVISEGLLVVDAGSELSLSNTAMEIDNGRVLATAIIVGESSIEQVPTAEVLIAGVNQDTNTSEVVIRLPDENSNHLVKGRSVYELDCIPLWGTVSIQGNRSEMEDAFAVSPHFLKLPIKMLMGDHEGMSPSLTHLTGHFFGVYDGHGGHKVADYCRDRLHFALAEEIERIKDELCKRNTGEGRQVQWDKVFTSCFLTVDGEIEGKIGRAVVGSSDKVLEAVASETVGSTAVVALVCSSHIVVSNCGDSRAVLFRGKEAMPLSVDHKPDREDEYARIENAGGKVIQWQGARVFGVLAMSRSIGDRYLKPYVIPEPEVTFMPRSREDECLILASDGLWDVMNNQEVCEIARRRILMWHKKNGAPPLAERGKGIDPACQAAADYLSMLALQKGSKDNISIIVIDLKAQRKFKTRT
The assay is described as follows: Yeast two-hybrid PYR1 mutant-HAB1 interaction assay (X-gal staining) in the absence of ABA. The format is cell-based. The following applies: no ABA. From the text:
To define sites that can be mutated to improve interactions between PYR/PYL receptors and PP2Cs, we conducted saturation mutagenesis on 39 residues in PYR1 that normally contact ABA (i.e., are within the ligand-binding pocket of PYR1) and/or PP2Cs (i.e., are within the PP2C binding interface). All 741 single-mutant variants possible at these functionally critical locations were constructed and then assayed for PP2C interactions using a yeast two-hybrid based assay. Saturation mutagenesis is a method that involves the construction of all possible amino acid variants at a given site (i.e., the generation of all 19 substitution mutants per site). We focused mutagenesis efforts on PYR1 because it is a well-characterized member of the PYR/PYL receptor family and has extensive structural data on which to guide mutagenesis studies, although it should be noted that the sites targeted display high sequence conservation among the PYR/PYL receptors (FIG. 1). Moreover, PYR1 is well suited for functional studies because its low basal activity allows its activation status to be studied using a yeast-based two-hybrid assay in which wild-type PYR1 will only bind to the PP2C HAB1 (or other PP2Cs) when the appropriate yeast cells are grown in the presence of ABA. […]

Assay [8] concerns Columbia seeds. Nature of the assay: Seed dormancy / germination assay of 35S-driven transgenic lines, stratified vs unstratified. The class given is in vivo, Arabidopsis. The following applies: 35S-driven overexpression in wild-type Columbia background. The procedure:
To investigate the effects of the PYL2^CA3 allele, we performed a number of physiological assays on wild-type and aba2-1 genotypes. Columbia (Col), 35S::PYL2, and 35S::PYL2^CA3 seed samples were divided into two portions; one portion was stratified on ⅓ MS plates for 6 days at 4° C. and the second portion was plated six days later ⅓ MS plates. Both samples were the transferred to room temperature (23° C.) and incubated in darkness. […] Each experiment was performed in triplicate and each point plotted represents the average of tests conducted using 40 to 70 seeds. […] Thus, overexpression of PYL2^CA3 activates the ABA-regulated seed dormancy pathway.
In order to assay dormancy of seeds for Columbia, 35S::GFP-PYL2, and 35S::GFP-PYL2^CA3 were divided into two portions and surface sterilized using chlorine gas (prepared in situ using bleach and HCl). One portion was stratified on ⅓ MS agar plates for 6 days at 4° C. in darkness and the second portion, which was maintained at room temperature, was seeded six days later on the ⅓ MS agar plates; both samples were transferred to a 23° C. light-tight growth chamber and germination scored at 24 hour periods. The homozygous 35S::GFP-PYL2 and 35S::GFP-[…] seeds used in these experiments were ˜5- and ˜6-months post-harvest respectively at the time of the experiment shown in FIG. 12.

Assay [9] relates to aba2-1 mutant seeds. Nature of the assay: Germination of aba2-1 background seeds on paclobutrazol or NaCl. The class given is in vivo, Arabidopsis. The following applies: 35S-driven transgene, germination 72 hours. From the text:
As a further test of the ability of PYL2^CA3 to activate ABA signaling in vivo, we examined the ability of this allele to revert phenotypes caused by ABA deficiency, reasoning that effective activation of the ABA pathway should suppress phenotypes observed in the aba2 mutant. […] To test this, we examined the germination of various genotypes on paclobutrazol, an inhibitor of GA biosynthesis. Wild-type seed germination is blocked by paclobutrazol treatment but aba2 mutants germinate due to defects in ABA-induced seed dormancy. We also examined the germination of various genotypes in the presence of NaCl, which, like paclobutrazole, inhibits seed germination in an ABA- and aba2-dependent manner (Gonzalez-Guzman M. et al. (2002) Plant Cell 14(8):1833-1846; Leon-Kloosterziel K M, et al. (1996) Plant J 10 (4):655-661). […] Thus, expression of PYL2^CA3 in developing seeds is sufficient to activate an ABA-dependent physiological process despite the depleted ABA levels present in the aba2 background.
Germination tests on paclobutrazol (Wako Chemicals, Japan) and NaCl were conducted as following. Columbia, aba2-1, aba2-1; 35S::GFP-PYL2 and aba2-1; 35S::GFP-PYL2″^3 seeds were surface sterilized and plated onto ⅓ MS agar media containing 25, 50 or 100 μM paclobutrazol or 0, 50, 200, 250 mM NaCl. Control wells contained ⅓ MS agar and 0.1% DMSO, the carrier solvent for paclobutrazol. The seeds were stratified for four days in darkness and then transferred to continuous illumination at room temperature (23° C.). Germination was assayed after 72 hours; seeds showing radicals at least ½ seed length or greater were scored as positive. Each experiment was performed in triplicate; experiments were performed on seeds that were ˜6-months post-harvest.

As for `CC1=CC(=O)CC(C)(C)[C@@]1(O)/C=C/C(C)=C\C(=O)O` [ABA, Abscisic acid], in [1], the “interaction between PYR1 and HAB1” value is listed as “promotes a strong interaction”.
Take `O=S(=O)(NCc1ccccn1)c1ccc(Br)c2ccccc12` [pyrabactin]: in assay [2], the “agonist activity on PYR1” value is recorded as “strong agonist activity”. In assay [3], the “agonist activity on PYL1” value is given as “strong agonist activity”. Also, the “activity on PYL2” value in [4] was “weak partial-agonist/antagonist activity”. In assay [5], the “activity on PYL5” value is “weak partial-agonist/antagonist activity”. In addition, in [6], the “ABA-responsive gene transcription in seeds” value is “essentially activates the full complement of ABA-responsive gene transcription in seeds”.
“PYR1: wild-type Arabidopsis ABA receptor PYR1 (SEQ ID NO:1)”: in [7], the “PYR1-HAB1 interaction in the absence of added ABA” value is “does not bind HAB1”.

B1: PYL2: wild-type ABA receptor PYL2 (SEQ ID NO:3), overexpressed as control (protein, listed as Arabidopsis thaliana)
chain: MSSSPAVKGLTDEEQKTLEPVIKTYHQFEPDPTTCTSLITQRIHAPASVVWPLIRRFDNPERYKHFVKRCRLISGDGDVGSVREVTVISGLPASTSTERLEFVDDDHRVLSFRVVGGEHRLKNYKSVTSVNEFLNQDSGKVYTVVLESYTVDIPEGNTEEDTKMFVDTVVKLNLQKLGVAATSAPMHDDE
modifications: thale cress PYR/PYL receptor, abscisic acid receptor PYL2, PYR1-like protein 2 (PYL2), ABI1-binding protein 6 (ABIP6), regulatory components of ABA receptor 14 (RCAR14), Bet v I allergen family protein, At2g26040, T19L18.15
Regarding B1, the “seed hyperdormancy (stratification dependent germination)” value in [8] is “not”. In assay [9], the “NaCl resistance of aba2 mutant seed germination” value was “unable to suppress” and the “paclobutrazol resistance of aba2 mutant seed germination” value is given as “unable to suppress”.

Values taken from patent US10704056B2, “Constitutively active ABA receptor mutants” (The Regents of the University of California, priority 2011, dated 2020).
